Values of other authors, collected in patent EP2959895A1, “Compositions comprising Phenylalanine and Leucine for use in the diagnosis and treatment of neurological disorders and symptoms thereof” (Rheinisch-Westfälische Technische Hochschule Aachen (RWTH), priority 2014, dated 2015).

Target: T1, L-1 transporter (Rattus norvegicus, UniProt Q63016)
T1 construct: blood brain barrier (BBB) transport for fourteen amino acids in anesthetized rats; host or cells: Blood-brain barrier of anesthetized rats, in vivo
T1 sequence (Q63016 whole entry): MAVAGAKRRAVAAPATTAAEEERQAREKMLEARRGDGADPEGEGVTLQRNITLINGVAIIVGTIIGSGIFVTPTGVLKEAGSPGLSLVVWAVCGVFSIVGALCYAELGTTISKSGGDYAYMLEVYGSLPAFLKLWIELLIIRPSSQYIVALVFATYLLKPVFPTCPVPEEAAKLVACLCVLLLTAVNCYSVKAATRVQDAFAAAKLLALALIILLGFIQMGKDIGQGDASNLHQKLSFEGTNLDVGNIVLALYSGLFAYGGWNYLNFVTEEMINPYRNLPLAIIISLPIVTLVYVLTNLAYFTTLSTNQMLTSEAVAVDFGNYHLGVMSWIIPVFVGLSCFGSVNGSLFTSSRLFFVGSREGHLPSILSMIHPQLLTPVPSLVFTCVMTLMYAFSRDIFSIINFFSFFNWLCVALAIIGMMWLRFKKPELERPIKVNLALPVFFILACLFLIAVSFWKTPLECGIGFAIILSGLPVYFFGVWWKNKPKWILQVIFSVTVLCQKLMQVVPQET
T1 sequence (Q794F9 whole entry partner): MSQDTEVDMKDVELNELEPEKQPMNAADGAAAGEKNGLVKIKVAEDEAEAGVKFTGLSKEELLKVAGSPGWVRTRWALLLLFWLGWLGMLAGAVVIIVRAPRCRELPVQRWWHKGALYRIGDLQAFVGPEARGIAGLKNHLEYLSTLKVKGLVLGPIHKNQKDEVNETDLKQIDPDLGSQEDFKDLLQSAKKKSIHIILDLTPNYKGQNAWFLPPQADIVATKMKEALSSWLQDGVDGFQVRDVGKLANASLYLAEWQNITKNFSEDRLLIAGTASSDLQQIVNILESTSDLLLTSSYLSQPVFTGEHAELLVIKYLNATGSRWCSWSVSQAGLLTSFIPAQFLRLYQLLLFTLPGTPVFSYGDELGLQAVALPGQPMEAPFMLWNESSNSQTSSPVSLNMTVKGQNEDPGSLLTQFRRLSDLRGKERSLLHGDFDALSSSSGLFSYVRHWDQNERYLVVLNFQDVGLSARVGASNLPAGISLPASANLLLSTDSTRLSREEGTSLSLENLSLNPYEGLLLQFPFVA
Conditions: blood brain barrier (BBB) transport, anesthetized rats; Pardridge and Oldendorf 1975

Km	SMILES
150 µM	CC(C)C[C@H](N)C(=O)O [leucine]
120 µM	N[C@@H](Cc1ccccc1)C(=O)O [phenylalanine]
